# Molecular target: MAPK14 (human) (UniProt Q16539)
# Test: Inhibition of In vitro MAPK14 Kinase Activity
# Chain of MAPK14 (human) (Q16539 whole entry, looked up): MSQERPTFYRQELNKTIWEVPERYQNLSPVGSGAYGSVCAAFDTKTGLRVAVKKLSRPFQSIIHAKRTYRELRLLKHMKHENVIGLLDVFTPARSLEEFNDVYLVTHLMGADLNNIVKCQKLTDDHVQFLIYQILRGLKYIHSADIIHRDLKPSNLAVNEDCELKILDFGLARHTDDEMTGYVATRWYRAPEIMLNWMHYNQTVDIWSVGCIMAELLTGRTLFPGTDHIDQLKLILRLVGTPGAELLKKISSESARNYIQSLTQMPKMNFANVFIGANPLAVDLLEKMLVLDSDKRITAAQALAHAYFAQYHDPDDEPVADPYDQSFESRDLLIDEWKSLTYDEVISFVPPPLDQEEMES
row,SMILES,IC50 [µM]
1,O=C(O)CC(CNc1cnn(-c2c(Cl)cccc2Cl)c(=O)c1Br)c1ccc(Cl)cc1 (configuration not stated),80 to 100
2,O=c1c(Br)c(OCCc2ccccc2)cnn1Cc1ccncc1,> 100
3,O=c1c(Oc2ccccc2)c(OCCc2ccccc2)cnn1-c1c(Cl)cccc1Cl,> 100
4,O=c1c(Br)c(N(CCO)CCc2ccccc2)cnn1-c1c(Cl)cccc1Cl,40 to 60
5,O=c1c(-c2ccccc2)c(OCCc2ccccc2)cnn1-c1c(Cl)cccc1Cl,> 100
6,O=c1[nH]ncc(OCc2ccc(F)cc2F)c1Br,> 100
7,CC(C)c1ccccc1Sc1cnn(Cc2ccccc2)c(=O)c1Br,> 100
8,COc1c(OCCc2ccccc2)cnn(-c2c(Cl)cccc2Cl)c1=O,60 to 80
9,O=c1c(Br)c(OCc2ccccc2CO)cnn1-c1c(Cl)cccc1Cl,0.1 to 20
10,O=c1c(Br)c(O)cnn1-c1c(Cl)cccc1Cl,> 100
11,CS(=O)(=O)OCc1ccccc1COc1cnn(-c2c(Cl)cccc2Cl)c(=O)c1Br,0.1 to 20
12,Cc1c(OCCc2ccccc2)cnn(-c2c(Cl)cccc2Cl)c1=O,0.1 to 20
13,O=c1c(Br)c(OCc2ccc(F)cc2F)cnn1-c1c(Cl)c[n+]([O-])cc1Cl,0.1 to 20
14,CN(C)CCn1ncc(OCCc2ccccc2)c(Br)c1=O,> 100
15,C[C@H](Nc1cnn(-c2c(Cl)cccc2Cl)c(=O)c1Br)[C@H](O)c1ccccc1,> 100
16,O=c1c(Br)c(OCc2ccccc2)cnn1-c1c(Cl)cccc1Cl,0.1 to 20
17,O=c1c(Br)c(OCc2ccc(F)cc2F)cnn1Cc1ccncc1,0.1 to 20
18,O=c1c(Br)c(N2CCN(c3ccc(F)cc3)CC2)cnn1-c1c(Cl)cccc1Cl,> 100
19,O=c1c(Br)c(NCc2cccc(Cl)c2)cnn1-c1c(Cl)cccc1Cl,20 to 40
20,O=c1c(Br)c(Sc2ccc(F)cc2)cnn1Cc1ccccc1,> 100
21,CN(C)CCCn1ncc(OCCc2ccccc2)c(Br)c1=O,> 100
22,O=c1c(Br)c(N[C@@H]2C[C@H]2c2ccccc2)cnn1-c1c(Cl)cccc1Cl,> 100
23,O=c1c(Br)c(OCc2ccc(F)cc2F)cnn1-c1c(Cl)cccc1Cl,0.1 to 20

row,SMILES,IC50 [µM]
1,O=c1c(Br)c(NCC(O)c2ccccc2)cnn1-c1c(Cl)cccc1Cl (configuration not stated),0.1 to 20
2,O=C(O)C(Nc1cnn(-c2c(Cl)cccc2Cl)c(=O)c1Br)c1ccccc1 (configuration not stated),> 100
3,O=c1c(Br)c(OCc2c(F)cc(F)cc2F)cnn1-c1c(Cl)cccc1Cl,0.1 to 20
4,CC(C)Cc1c(OCCc2ccccc2)cnn(-c2c(Cl)cccc2Cl)c1=O,> 100
5,O=c1c(Br)c(OCc2ccc(F)cc2)cnn1Cc1ccccc1,> 100
6,NN(Cc1ccccc1)c1cnn(-c2c(Cl)cccc2Cl)c(=O)c1Br,60 to 80
7,CN(CCc1ccccc1)c1cnn(-c2c(Cl)cccc2Cl)c(=O)c1Br,20 to 40
8,O=c1c(Br)c(OCc2ccc(F)cc2F)cnn1-c1c(Cl)cncc1Cl,0.1 to 20
9,O=c1c(Br)c(OCc2ccc(F)cc2F)cnn1CCO,20 to 40
10,O=c1c(Br)c(NCC2CCCO2)cnn1-c1c(Cl)cccc1Cl (configuration not stated),> 100
11,CN(C)CCCn1ncc(OCc2ccc(F)cc2F)c(Br)c1=O,> 100
12,O=c1c(Br)c(OCc2ccc(F)cc2)cnn1-c1c(Cl)cccc1Cl,0.1 to 20
13,O=c1c(Br)c(OCCc2ccccc2)cnn1Cc1ccccc1,> 100
14,O=c1c(Br)c(N[C@H](CO)c2ccccc2)cnn1-c1c(Cl)cccc1Cl,0.1 to 20
15,COc1ccccc1COc1cnn(-c2c(Cl)cccc2Cl)c(=O)c1Br,0.1 to 20
16,C[C@@H](Nc1cnn(-c2c(Cl)cccc2Cl)c(=O)c1Br)[C@@H](O)c1ccccc1,> 100
17,C[C@H](Nc1cnn(-c2c(Cl)cccc2Cl)c(=O)c1Br)c1ccccc1,0.1 to 20
18,O=c1c(Br)c(NCCc2ccccc2)cnn1-c1c(Cl)cccc1Cl,0.1 to 20
19,O=c1c(Br)c(OCc2ccccc2CCl)cnn1-c1c(Cl)cccc1Cl,0.1 to 20
20,O=c1c(Br)c(OCCc2ccccn2)cnn1-c1c(Cl)cccc1Cl,0.1 to 20
21,O=c1c(Br)c(NCc2ccc(F)cc2)cnn1Cc1ccccc1,60 to 80
22,O=c1c(Br)c(OCc2ccc(F)c(F)c2F)cnn1-c1c(Cl)cccc1Cl,0.1 to 20
23,O=c1c(Br)c(OCc2ccccc2)cnn1-c1ccccc1,20 to 40

row,SMILES,IC50 [µM]
1,O=c1cc(OCCc2ccccc2)cnn1-c1c(Cl)cccc1Cl,40 to 60
2,O=c1c(Br)c(NCc2ccc(F)cc2)cnn1-c1c(Cl)cccc1Cl,0.1 to 20
3,O=c1c(Br)c(OCc2ccccc2)cnn1Cc1ccccc1,> 100
4,C[C@@H](Nc1cnn(-c2c(Cl)cccc2Cl)c(=O)c1Br)c1ccccc1,80 to 100
5,O=c1[nH]ncc(OCCc2ccccc2)c1Br,> 100
6,O=c1c(Br)c(N[C@@H](CO)c2ccccc2)cnn1-c1c(Cl)cccc1Cl,> 100
7,O=c1c(Br)c(OCc2ccc(F)c(F)c2)cnn1-c1c(Cl)cccc1Cl,0.1 to 20
8,O=C(O)C(Nc1cnn(Cc2ccccc2)c(=O)c1Br)c1ccccc1 (configuration not stated),> 100
9,O=c1c(Br)c(NCCc2ccccc2F)cnn1-c1c(Cl)cccc1Cl,0.1 to 20
10,O=c1c(Br)c(OCCc2ccccc2)cnn1CCO,> 100
11,Nc1ccccc1CNc1cnn(-c2c(Cl)cccc2Cl)c(=O)c1Br,0.1 to 20
12,CN(C)CCn1ncc(OCc2ccc(F)cc2F)c(Br)c1=O,> 100
13,O=c1c(Br)c(NCC2CCCO2)cnn1Cc1ccccc1 (configuration not stated),> 100
14,O=c1c(Br)c(NCC(CCO)c2ccc(Cl)cc2)cnn1-c1c(Cl)cccc1Cl (configuration not stated),> 100
15,O=c1c(Br)c(OCCc2ccccc2)cnn1-c1c(Cl)cccc1Cl,0.1 to 20
16,O=c1c(Br)c(Nc2ccccc2)cnn1-c1c(Cl)cccc1Cl,> 100
17,O=c1c(Br)c(Sc2ccc(F)cc2)cnn1-c1c(Cl)cccc1Cl,> 100
18,O=c1c(Br)c(OCCCc2ccccc2)cnn1-c1c(Cl)cccc1Cl,> 100
19,O=c1c(Br)c(NCc2ccccc2)cnn1-c1c(Cl)cccc1Cl,0.1 to 20
20,O=c1c(Br)c(NC(CO)Cc2ccccc2)cnn1-c1c(Cl)cccc1Cl (configuration not stated),> 100
21,Cc1nc(Cn2ncc(OCc3ccc(F)cc3F)c(Br)c2=O)cs1,0.1 to 20

# Reference: the Kinase Knowledgebase extract (Sharma et al. 2016)
